Key:
HBV Cp T109I = test: microbe, parasite or virus in culture; type: cell-based, Hepatitis B virus; settings: for EC50: Hepatitis B virus, Huh-7, read-out: Mean EC50; for Fold shift: T109I vs wild type
HBV [1] = test: HBV infection of primary human hepatocytes (PHHs); type: cell-based; settings: Hepatitis B virus, Hepatocyte, PHH
HBV Cp I105L = test: microbe, parasite or virus in culture; type: cell-based, Hepatitis B virus; settings: for EC50: Hepatitis B virus, Huh-7, read-out: Mean EC50; for Fold shift: I105L vs wild type
HBV [2] = test: HBV infection of HepG2-NTCP cells; type: cell-based; settings: Hepatitis B virus
[3] = system: HBV (genotype D, subtype ayw); test: HBV replication assay in HepAD38 cells; type: cell-based, Hepatitis B virus; settings: Hepatitis B virus, HePAD38, HepAD38; total intracellular viral DNA; read-out: Mean EC50, viral DNA
HBV [4] = test: HBV RNA/DNA analyses in induced HepAD38 cells (Northern/Southern blot); type: cell-based, Hepatitis B virus; settings: HepAD38, 10-fold over VR EC50
HBV Cp Wild type = test: microbe, parasite or virus in culture; type: cell-based, Hepatitis B virus; settings: for EC50: Hepatitis B virus, Huh-7, read-out: Mean EC50; for Fold shift: Wild type
HBV Cp P25A = test: microbe, parasite or virus in culture; type: cell-based, Hepatitis B virus; settings: for EC50: Hepatitis B virus, Huh-7, read-out: Mean EC50; for Fold shift: P25A vs wild type
HBV Cp I105T = test: microbe, parasite or virus in culture; type: cell-based, Hepatitis B virus; settings: for EC50: Hepatitis B virus, Huh-7, read-out: Mean EC50; for Fold shift: I105T vs wild type
HBV Cp Y38C = test: microbe, parasite or virus in culture; type: cell-based, Hepatitis B virus; settings: for EC50: Hepatitis B virus, Huh-7, read-out: Mean EC50; for Fold shift: Y38C vs wild type
HBV Cp D29G = test: microbe, parasite or virus in culture; type: cell-based, Hepatitis B virus; settings: for EC50: Hepatitis B virus, Huh-7, read-out: Mean EC50; for Fold shift: D29G vs wild type
HBV Cp T33N = test: microbe, parasite or virus in culture; type: cell-based, Hepatitis B virus; settings: for EC50: Hepatitis B virus, Huh-7, read-out: Mean EC50; for Fold shift: T33N vs wild type
HBV [5] = test: Extracellular HBV DNA and pgRNA in HepAD38 cells (qPCR, RT-qPCR); type: cell-based, Hepatitis B virus; settings: HepAD38; concn ETV 0.01, ABI-H0731 2.0, GLS4 0.5, NVR 3-778 2.5, AT-130 0.8, VRD-32 0.8 μM
Description: For HBV RNA Northern blot analysis, total cellular RNA or encapsidated pgRNA samples were resolved in a 1.5% agarose gel containing 2.2 M formaldehyde and transferred onto a Hybond-XL membrane (GE Healthcare). For DNA Southern blot analysis, HBV core DNA or cccDNA samples were resolved by electrophoresis in a 1.2% agarose gel and blotted onto a Hybond-XL membrane. Membranes were probed with either an [α-^32P]UTP (3,000 Ci/mmol; PerkinElmer)-labeled plus-strand-specific (for Northern blot hybridization) or minus-strand-specific (for Southern blot hybridization) HBV riboprobe and exposed to a phosphorimager screen. Extracellular HBV DNA and RNA were copurified from the culture medium of induced HepAD38 cells by using a MinElute virus vacuum kit (Qiagen). Viral DNA was quantified using the above-mentioned qPCR method directly, and HBV RNA was detected by RT-qPCR with the same core region primer/probe set after the removal of DNA contamination by DNase I (Thermo Fisher) treatment.

HBV Cp T109M = test: microbe, parasite or virus in culture; type: cell-based, Hepatitis B virus; settings: for EC50: Hepatitis B virus, Huh-7, read-out: Mean EC50; for Fold shift: T109M vs wild type
HBV Cp Y118F = test: microbe, parasite or virus in culture; type: cell-based, Hepatitis B virus; settings: for EC50: Hepatitis B virus, Huh-7, read-out: Mean EC50; for Fold shift: Y118F vs wild type
HBV Cp Y38F = test: microbe, parasite or virus in culture; type: cell-based, Hepatitis B virus; settings: for EC50: Hepatitis B virus, Huh-7, read-out: Mean EC50; for Fold shift: Y38F vs wild type
[6] = total intracellular viral DNA, read-out: Mean EC50, viral DNA

Row | SMILES | EC50 (HBV Cp T109I) [nM] | EC50 (HBV [1]; [6]) [nM] | EC50 (HBV Cp I105L) [nM] | EC50 (HBV [2]; read-out: Mean EC50, HBeAg) [nM] | EC50 (HBV [2]; read-out: Mean EC50, HBsAg) [nM] | EC50 (HBV [2]; read-out: Mean EC50, pgRNA) [nM] | EC50 (HBV [2]; [6]) [nM] | EC50 [3] [nM] | Levels of encapsidated pgRNA by Northern blotting (HBV [4]) | EC50 (HBV Cp Wild type) [nM] | EC50 (HBV Cp P25A) [nM] | EC50 (HBV Cp I105T) [nM] | EC50 (HBV Cp Y38C) [nM] | EC50 (HBV Cp D29G) [nM] | EC50 (HBV Cp T33N) [nM] | Extracellular DNA content (% of DMSO control) (HBV [5]) | Extracellular pgRNA content (% of DMSO control) (HBV [5]) | EC50 (HBV Cp T109M) [nM] | EC50 (HBV Cp Y118F) [nM] | EC50 (HBV Cp Y38F) [nM] | further results
1 | CCOC(=O)C1=C(CN2CCOCC2)NC(c2nccs2)=NC1c1ccc(F)cc1Br (stereo not drawn) [GLS4] | 237 ± 16.6 | 1940 | 12 ± 6.5 | 549 ± 48 | 673 ± 41 | 279 ± 43 | 58 ± 6 | 29 ± 9 | virtually undetectable | 17.9 ± 0.4 | 451 ± 3.3 | 17 ± 2.7 | 17 ± 9.5 | 16.1 ± 0.4 | 6340 | 0.1 % of DMSO control | 0.1 % of DMSO control | 15 ± 5.6 | 84.7 ± 2.3 | 65 ± 17 | EC50 (HBV [1]; read-out: EC50, HBeAg): 1480 nM; EC50 (HBV [1]; read-out: EC50, HBsAg): 1860 nM; EC50 (HBV [1]; read-out: EC50, pgRNA): 1930 nM; EC50 (HBV [2]; read-out: EC50, HBeAg production): 550 nM; EC50 (HBV [2]; read-out: EC50, HBsAg production): 670 nM; EC50 (HBV [2]; read-out: EC50, pgRNA production): 280 nM; rcDNA detection by Southern blot (HBV [4]): could not be detected
2 | O=C(Nc1cc(F)c(F)c(F)c1)c1ccc(F)c(S(=O)(=O)N2CCC(O)CC2)c1 [NVR 3-778] | 77.4 ± 0.4 | 1680 | 127 ± 73 | 8360 | 9260 | 7600 | 590 ± 71 | 238 ± 33 | virtually undetectable | 178 ± 42 | 719 ± 58 | 726 ± 98 | 150 ± 48 | 210 ± 52 | > 10000 | 1.0 % of DMSO control | 2.0 % of DMSO control | 161 ± 97 | 887 ± 478 | 208 ± 49 | Fold shift (HBV Cp T109I): 0.4 fold; EC50 (HBV [1]; read-out: Mean EC50, HBeAg): 4010 nM; EC50 (HBV [1]; read-out: Mean EC50, HBsAg): 5040 nM; EC50 (HBV [1]; read-out: Mean EC50, pgRNA): 4200 nM; Fold shift (HBV Cp I105L): 0.7 fold; Fold shift (HBV Cp Wild type): 1 fold; Fold shift (HBV Cp P25A): 4 fold; Fold shift (HBV Cp I105T): 4.1 fold; Fold shift (HBV Cp Y38C): 0.8 fold; Fold shift (HBV Cp D29G): 1.2 fold; Fold shift (HBV Cp T33N): >56 fold; Fold shift (HBV Cp T109M): 0.9 fold; Fold shift (HBV Cp Y118F): 5 fold; Fold shift (HBV Cp Y38F): 1.2 fold
3 | O=C1CO[C@H](c2cn(-c3ccc(F)cc3)nc2-c2ccc(F)cc2)N1CCc1ccc(O)cc1 [VRD-32] | 15.8 ± 1.9 |  | 40 ± 19 |  |  |  |  |  | virtually undetectable | 16.1 ± 7.8 | 15.9 ± 0.04 | 103 ± 87 | 20 ± 1.4 | 13.8 ± 1 | 1290 | 0.3 % of DMSO control | 0.9 % of DMSO control | 25 ± 23 | 805 ± 423 | 20 ± 10 | Fold shift (HBV Cp T109I): 1 fold; Fold shift (HBV Cp I105L): 2.5 fold; rcDNA detection by Southern blot (HBV [4]): could not be detected; Fold shift (HBV Cp Wild type): 1 fold; Fold shift (HBV Cp P25A): 1 fold; Fold shift (HBV Cp I105T): 6.4 fold; Fold shift (HBV Cp Y38C): 1.2 fold; Fold shift (HBV Cp D29G): 0.9 fold; Fold shift (HBV Cp T33N): 80 fold; Fold shift (HBV Cp T109M): 1.6 fold; Fold shift (HBV Cp Y118F): 50 fold; Fold shift (HBV Cp Y38F): 1.3 fold
